The term IC50 denotes the midpoint of a concentration-inhibition curve.

The target in the assay is T1, γ-secretase (Homo sapiens, UniProt P49768).
T1 construct: uses a HEK293 membrane fraction as a source of γ-secretase; endogenous in cells; host or cells: HEK293 (microsomal membrane fraction, solubilised in 0.25% CHAPSO)
In words: in vitro γ-secretase assay (HEK293 membrane fraction, recombinant APP substrate, Abeta ELISA). The assay is classed as biochemical. As to conditions: γ-secretase inhibition, table head prints none. An excerpt:
Description of γ-Secretase Assay
The activity of test compounds can be evaluated in assays which measure the proteolytic cleavage of suitable substrates by γ-secretase activity. These can be cellular assays where e.g., a substrate of the γ-secretase is fused in its cytoplasmic domain to a transcription factor. Cells are transfected with this fusion gene and a reporter gene, e.g., firefly luciferase, which expression is enhanced by the transcription factor. Cleavage of the fused substrate by γ-secretase will lead to expression of the reporter gene which can be monitored in appropriate assays. The γ-secretase activity can also be determined in cell-free in vitro asays where e.g., a cell lysate containing the γ-secretase complex is incubated with a suitable APP-derived substrate which is cleaved to the Abeta peptides. The amount of produced peptides can be determined with specific ELISA assays. Cell lines of neuronal origin secrete Abeta peptides which can be measured with the specific ELISA assay. Treatment with compounds which inhibit γ-secretase leads to a reduction of secreted Abeta thus providing a measure of inhibition.
The in vitro assay of γ-secretase activity uses a HEK293 membrane fraction as a source of γ-secretase and a recombinant APP substrate. Latter consist of the C-terminal 100 amino acids of human APP fused to a 6× Histidin tail for purification which is expressed in E. coli in a regulatable expression vector, e.g. pEt15. This recombinant protein corresponds to the truncated APP fragment which results after […] of the extracellular domain and which constitutes the γ-secretase substrate. […] Hek293 cells are mechanically disrupted and the microsomal fraction is isolated by differential centrifugation.
Background: ELISA stands for enzyme-linked immunosorbent assay.
With `CC1(C)CCNC(=O)C(N(Cc2ccc(C(=O)O)cc2)S(=O)(=O)c2ccc(Cl)cc2)C1` (centres unmarked) [Example 139, 4-{[(4-Chloro-benzenesulfonyl)-(5,5-dimethyl-2-oxo-azepan-3-yl)-amino]-methyl}-benzoic acid], the IC50 was 70 nM.
As for `COc1ccc(CN([C@@H]2CCCCNC2=O)S(=O)(=O)c2ccc(Cl)cc2)c(F)c1` [Example 68, 4-Chloro-N-(2-fluoro-4-methoxy-benzyl)-N-((R)-2-oxo-azepan-3-yl)-benzenesulfonamide], the IC50 came to 120 nM.
The value for `COC(=O)c1ccc(CN([C@@H]2CCCCNC2=O)S(=O)(=O)c2ccc(Cl)cc2)c(F)c1` [Example 34, 4-{[(4-Chloro-benzenesulfonyl)-((R)-2-oxo-azepan-3-yl)-amino]-methyl}-3-fluoro-benzoic acid methyl ester] was 140 nM; that for `Cc1noc(-c2ccc(CN(C3CC(C(C)C)CCNC3=O)S(=O)(=O)c3ccc(Cl)cc3)cc2)n1` (centres unmarked) [Example 181, 4-Chloro-N-(5-isopropyl-2-oxo-azepan-3-yl)-N-[4-(3-methyl-[1,2,4]oxadiazol-5-yl)-benzyl]-benzenesulfonamide] was 270 nM; that for `CC(=O)Nc1ccc(CN(C2CC(C)(C)CCNC2=O)S(=O)(=O)c2ccc(Cl)cc2)cc1` (racemic) [Example 152, rac-N-(4-{[(4-Chloro-benzenesulfonyl)-(5,5-dimethyl-2-oxo-azepan-3-yl)-amino]-methyl}-phenyl)-acetamide] was 20 nM.

Source of the values: US7253158B2, “Sulfonamides” (Hoffmann-La Roche Inc., priority 2004, dated 2007).
